In patent US9096591B2, “Tetracyclic compounds” (Medivation Technologies, Inc., priority 2007, dated 2015):
Like-named read-outs stand apart in the source and are kept apart here.

Legend:
[1] = molecular target: T1, human recombinant adrenergic α2B receptor (Homo sapiens, UniProt P18089); test: Adrenergic α2B radioligand binding ([3H]Rauwolscine); set-up: Inhibition of ligand binding, Adren. alpha2B: concentration or dose not given beside the values; conditions: percent inhibition of specific binding
T1 construct: expressed in transfected cells; host or cells: CHO-K1 cells
T1 sequence (P18089 1-450): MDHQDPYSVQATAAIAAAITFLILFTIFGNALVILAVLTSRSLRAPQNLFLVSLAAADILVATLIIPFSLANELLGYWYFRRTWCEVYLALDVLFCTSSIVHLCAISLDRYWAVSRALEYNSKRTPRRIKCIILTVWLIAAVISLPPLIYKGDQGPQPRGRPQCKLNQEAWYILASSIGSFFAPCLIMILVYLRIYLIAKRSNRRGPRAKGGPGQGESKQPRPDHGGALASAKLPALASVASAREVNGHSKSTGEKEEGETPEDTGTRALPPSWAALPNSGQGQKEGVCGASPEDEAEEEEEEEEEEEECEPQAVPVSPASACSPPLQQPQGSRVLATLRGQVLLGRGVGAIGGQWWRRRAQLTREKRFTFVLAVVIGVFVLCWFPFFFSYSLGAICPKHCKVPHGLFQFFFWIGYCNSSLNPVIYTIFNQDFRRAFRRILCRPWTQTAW
Outline: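 Membranes from CHO-K1 cells expressing the receptor, in 50 mM Tris-HCl pH 7.4 with 12.5 mM MgCl2, 1 mM EDTA, 0.2% BSA, incubated with compounds and 2.5 nM [3H]Rauwolscine for 60 minutes at 25 °C.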

[2] = molecular target: T2, human recombinant histamine H1 receptor (Homo sapiens, UniProt P35367); test: Histamine H1 radioligand binding ([3H]Pyrilamine); conditions: read-out: Inhibition of ligand binding, Hist. H1
T2 construct: expressed in transfected cells; host or cells: CHO cells
Outline: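 Receptor expressed in CHO cells, assayed in 50 mM Tris-HCl pH 7.4 with 2 mM MgCl2, 100 mM NaCl, 250 mM sucrose. Compounds tested at 1 μM in 1% DMSO; non-specific binding set with 1 μM pyrilamine. Filter-bound radioactivity counted; values are percent inhibition of specific binding.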

[3] = molecular target: T3, human recombinant histamine H2 receptor (Homo sapiens, UniProt P25021); test: Histamine H2 radioligand binding ([125I]Aminopotentidine); conditions: read-out: Inhibition of ligand binding, Hist. H2
T3 construct: expressed in transfected cells; host or cells: CHO-K1 cells
Outline: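 Test compounds were assessed for their ability to displace radioligand from the human recombinant histamine H2 receptor. Non-specific binding was determined in the presence of 3 μM Tiotidine, and results were expressed as percent inhibition of specific binding, with 1% DMSO serving as the vehicle.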

[4] = test system: rat brain mitochondria; test: Ca2+-induced swelling of mitochondria (MPT pore opening); format: biochemical, Wistar rats; conditions: for A540 increase in mitochondrial suspension after addition of 100 μM of compound: 100 μM compound
Description: Rat liver and brain mitochondria were prepared from male Wistar rats. The rats were euthanized in a CO2 chamber followed by decapitation the procedure being in compliance with the Guidelines for Animal Experiments at IPAC RAS. […]
Brain mitochondria were isolated from the pooled forebrains of two rats. The modified method of Sims was used to isolate and purify brain mitochondria in a Percoll gradient. The brain was homogenized in “buffer A” (225 mM mannitol, 75 mM sucrose, 5 mM HEPES, 1 mM EGTA, pH 7.4 [KOH]) and centrifuged for 10 min at 1300 g. The supernatant was centrifuged for 10 min at 10000 g, and then the pellet was suspended in 15% Percoll and layered on a discontinuous gradient consisting of 40 and 23% Percoll, respectively, which was then centrifuged for 10 min at 30000 g without using brakes. The mitochondria were collected from the interface of the lower two layers and after resuspension in “buffer A”, the suspension was centrifuged at 16600 g for 10 min, then the pellet was resuspended in “buffer A”, BSA (10 mg/mL) was added to bind free fatty acids; and the suspensions was centrifuged again at 6300 g for 10 min. Following centrifugation the pelleted mitochondria were re-suspended in isolation medium without EGTA to achieve a protein concentration of 15-20 mg/ml.
Mitochondrial swelling caused by influx of solutes through open PT pores results in an increase in light transmission (i.e., a reduced turbidity). This turbidity change offers a convenient and frequently used assay of the MPT by measurement of absorbance in mitochondrial suspensions. In the present study, the MPT induced by Ca^2+ and inorganic phosphate (Ca/Pi) was monitored by absorbance changes at 540 nm in a cuvette in a Beckman DU 640 spectrophotometer in 1 ml of buffer A plus 0.8 μM rotenone, 5 mM succinate, 1 mM KH2PO4 and 0.5 mg or 0.2 mg protein of isolated liver or brain mitochondria, accordingly. Reaction was started by the addition of triggering agent (Ca^2+). Pre-treatment and reaction were performed at 30° C. Swelling rate was quantified as ΔA540/min/mg, calculated, in all cases, from a tangent to the steepest portion of the plot of A540 versus time.
Ca^2+-induced Swelling of mitochondria was used as the primary screening test for compounds influence on MPT pore opening. […] But the inhibition of swelling may be connected not only with direct inhibition of MPT pore opening but also with the impairment of respiratory function of mitochondria and with the compounds action on calcium transport into mitochondria. For the primary estimation of these possibilities the mitochondrial membrane potential and calcium retention capacity of mitochondria were measured. […] New synthesized compounds (except C-14 and C-43) alone induced an increase of brain mitochondria suspension turbidity. The mechanism of such effect needs additional investigations.

[5] = read-out: IC50, Ca2+-induced (25-50 μM) swelling of brain mitochondria, rat brain mitochondria, Ca2+ 25-50 μM

T3 sequence (P25021 whole entry): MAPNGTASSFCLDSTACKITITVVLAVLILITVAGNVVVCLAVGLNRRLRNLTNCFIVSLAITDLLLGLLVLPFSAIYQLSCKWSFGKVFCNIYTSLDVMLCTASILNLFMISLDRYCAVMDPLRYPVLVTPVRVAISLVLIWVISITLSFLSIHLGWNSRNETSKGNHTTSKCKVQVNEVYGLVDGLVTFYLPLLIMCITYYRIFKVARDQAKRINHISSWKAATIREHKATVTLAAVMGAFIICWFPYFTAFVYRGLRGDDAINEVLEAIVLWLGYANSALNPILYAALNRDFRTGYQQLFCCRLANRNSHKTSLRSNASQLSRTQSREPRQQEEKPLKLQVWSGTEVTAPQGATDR
T2 sequence (P35367 whole entry): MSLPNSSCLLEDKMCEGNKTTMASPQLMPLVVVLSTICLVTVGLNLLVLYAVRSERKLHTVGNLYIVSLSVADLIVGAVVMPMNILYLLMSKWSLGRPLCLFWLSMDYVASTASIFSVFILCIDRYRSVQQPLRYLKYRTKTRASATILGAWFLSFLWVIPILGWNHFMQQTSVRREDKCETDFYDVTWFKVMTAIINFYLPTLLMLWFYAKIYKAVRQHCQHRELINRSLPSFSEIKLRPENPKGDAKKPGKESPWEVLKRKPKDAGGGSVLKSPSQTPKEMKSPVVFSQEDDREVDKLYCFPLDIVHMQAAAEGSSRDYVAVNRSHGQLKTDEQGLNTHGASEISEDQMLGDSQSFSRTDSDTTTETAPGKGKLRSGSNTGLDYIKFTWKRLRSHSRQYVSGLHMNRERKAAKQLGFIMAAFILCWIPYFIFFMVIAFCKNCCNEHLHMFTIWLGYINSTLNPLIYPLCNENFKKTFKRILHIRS

Row | Structure (SMILES) | Inhibition of ligand binding, Adren. alpha2B [1] | inhibition at 1 µM [2] | inhibition at 1 µM [3] | A540 increase in mitochondrial suspension after addition of 100 μM of compound ([4]; rat brain mitochondria) | IC50 [4, 5] | IC50 ([4]; concentration reducing to 50% the initial rate of turbidity fall after calcium addition, read-out: IC50, decrease of calcium-induced swelling of brain mitochondria)
1 | CN1CCc2c(c3cc(Cl)ccc3n2CCc2ccc(C(F)(F)F)nc2)C1 [Compound 250] | 108% | 102% | 54% | – | – | –
2 | Cc1ccc2c(c1)c1c(n2CCc2ccc(C)nc2)CCN(C)C1 [Dimebon, dimebon, reference compound] | 112% | 94% | 83% | 1 rel.units | 66 ± 26 µM | –
3 | CN1CCc2c(c3cc(Cl)ccc3n2CCc2nc(-c3ccccc3)cs2)C1 [Compound C1-8] | – | – | – | 25 rel.units | 6.25 ± 6.25 µM | ~6 µM
